This is an account of results in patent US6521645B2, “Methods for the treatment and prevention of urinary stone disease” (The University of Kansas Medical Center, priority 2000, dated 2003).

Like-named read-outs stand apart in the source and are kept apart here.

For series [1] the following is noted: rat model of hyperoxaluria; cited from earlier work.
For series [2] the following is noted: cited from earlier work.
Series [3] is described as follows: Ethylene glycol (EG) rat model of experimental hyperoxaluria. Particulars: rats given EG […] solution in drinking water; predicted result. The series is classed as in vivo. From the text: Both compounds are precursors of oxalate synthesis and their administration results in increased urinary oxalate concentration. […] The use of two different models also helps to minimize possible model-specific adverse effects. […] The results for Day-14 oxalate are known by Day 15, at which time the animals within each group (Control, EG) are pair-matched according to their Day-14 oxalate. The pyridoxamine and no-pyridoxamine groups therefore begin the pyridoxamine-treatment period with nearly identical mean and standard deviation oxalate excretion, which optimizes the sensitivity of this experimental design.

Series [4] can be described thus: Urinary oxalate excretion in pyridoxamine-treated rats (oxalate oxidase method). The class given is in vivo, Sprague-Dawley rats. Particulars: pyridoxamine in drinking water, 1.2 μm/day/gram body weight. How it is done:
(§1) Two month old Sprague-Dawley rats were housed individually in metabolic cages and fed standard powdered stock rations. […] To minimize possible chemical degradation of pyridoxamine, fresh solutions were prepared daily and administered in water bottles wrapped in aluminum foil.
Twenty-four hour urine samples were collected under toluene (to inhibit bacterial growth) using containers with 2 M hydrochloric acid to minimize spontaneous breakdown of urinary ascorbic acid to oxalate (21). The urine samples were stored at −70° C. until further analysis. Under these conditions, frozen urine can be stored for at least 1 month with no effect on oxalate measurements (22). Collected urine samples were analyzed to determine concentrations of oxalate using the oxalate oxidase method (23). This assay is highly specific and sensitive to about 10 μM (23). Oxalate oxidase from Barley seedlings was purchased from Sigma Co. (St. Louis, Mo.). The method is based on the conversion of oxalate to hydrogen peroxide and carbon dioxide by oxalate oxidase. […] was determined enzymatically with horseradish peroxidase by oxidative coupling of 3-methyl-2-benzothiazolinone hydrazone with N,N-dimethylaniline. The resulting colored product was determined spectrophotometrically at 595 nm. The modified sample preparation procedure was used, which replaces column chromatography with a simple precipitation step (24).

The nature of series [5]: Body weight, behavior and water consumption of pyridoxamine-treated rats. The class given is in vivo, Sprague-Dawley rats. As for the experimental part:
as §1

For a further series, the target named is T1, oxalate oxidase (Hordeum vulgare, UniProt P45850).
T1 construct: Oxalate oxidase from Barley seedlings was purchased from Sigma Co; purchased Sigma Co. (St. Louis, Mo.); host or cells: barley seedlings (natural source)
T1 sequence (P45850 1-201): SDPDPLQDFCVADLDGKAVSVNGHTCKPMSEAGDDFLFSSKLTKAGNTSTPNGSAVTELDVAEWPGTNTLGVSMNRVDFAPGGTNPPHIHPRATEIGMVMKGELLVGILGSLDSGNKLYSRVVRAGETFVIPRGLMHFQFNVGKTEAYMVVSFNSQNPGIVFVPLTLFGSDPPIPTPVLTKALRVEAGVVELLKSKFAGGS
Kind of series: Interference of pyridoxamine with urinary oxalate determination by oxalate oxidase method. Set-up: species or system Barley. The settings on record: pyridoxamine added to assay mixtures, final concentration 2 mg/ml.

For series [6] the following is noted: diabetic rat model, 7 months, same dose; cited from earlier work.
The conditions of series [7]: cited from earlier work. The source holds these as a separate data set.

As to `O=C1N[C@H](C(=O)O)CS1` [OTZ, (L)-2-oxothiazolidine-4-carboxylate], in series [1], the urinary oxalate concentration entry is “decrease”. Besides, in series [2] (normal individuals), the urinary oxalate levels result was “decreased”. Further, the adverse effects entry in series [2] (patients, administered for only 48 hours) is reported as “mild to moderate adverse effects”.

As to `Cc1ncc(CO)c(CN)c1O.Cl.Cl` [pyridoxamine, Pyridoxamine dihydrochloride], the oxalate excretion entry in series [3] was “significantly reduce”. For the same molecule, in series [4], the “statistical significance of the urinary oxalate difference from controls” value was “statistically different from controls after 12 days” and the “urinary oxalate levels versus controls” value is on record as “consistently lower”. In addition, in series [5], the “general behavior versus control group” value was “no difference” and the “weight gain versus control group” value is given as “no difference”. The Weight in series [5] (Day 1) was 315 ± 6 grams. Besides, the Weight in series [5] (Day 26) was 363 ± 16 grams. For the same molecule, the “effect on oxalate measurements” value at oxalate oxidase is “no effect”. In addition, the “therapeutic effect of the dose” value in series [6] is “had therapeutic effects”.

As for `Cc1ncc(CO)c(CO)c1O` [pyridoxine], in series [7] (stone formers, 200 mg daily), the urinary oxalate levels result is “did not reduce”. In series [7] (women, 40 mg/day), the “risk of kidney stone formation” value is reported as “reduced risk”.
